{"source": "patent US9708314B2", "about": "“Heterocyclic amide compound” (NISSAN CHEMICAL INDUSTRIES, LTD., priority 2013, dated 2017)", "assay_type_in_all_cases": "in vivo", "key": {"[1]": {"tested_on": "Echinochloa oryzacola Vasing.", "assay": "Test Example 2: herbicidal activity, application during weed generation in submerged conditions", "conditions": "Eighteenth Table; application herbicide amount 320 g/ha", "outline": "(§1)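 Alluvial soil in Wagner pots flooded to 4 cm water depth; seeds sown mixed, grown in greenhouse at 25–30 °C. At one- to two-leaf stage, emulsion diluted with water to the set rate (g/ha) was applied to the water surface. Effect scored 0–5 by herbicidal ratio three weeks later.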"}, "Monochoria vaginalis": {"tested_on": "Monochoria vaginalis", "assay": "Test Example 2: herbicidal activity, application during weed generation in submerged conditions", "conditions": "Eighteenth Table; application herbicide amount 320 g/ha", "outline": "as §1"}, "Scirpus juncoides": {"tested_on": "Scirpus juncoides", "assay": "Test Example 2: herbicidal activity, application during weed generation in submerged conditions", "conditions": "Eighteenth Table; application herbicide amount 320 g/ha", "outline": "as §1"}, "Brassica campestris L.": {"tested_on": "Brassica campestris L.", "assay": "Test Example 4: effect on crop by application to foliage (diluvial soil, plastic box)", "conditions": "foliage application", "outline": "(§2)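 Scores run from 0 (herbicidal ratio ≤5%) to 5 (≥90%, almost fully withered) and were assessed three weeks after foliar spraying. Seedlings had been raised for 14 days at 25-30° C in sterilized diluvial soil before treatment, with the emulsion diluted in water to the stated g/ha dose.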"}, "Zea mays": {"tested_on": "Zea mays", "assay": "Test Example 4: effect on crop by application to foliage (diluvial soil, plastic box)", "conditions": "foliage application", "outline": "as §2"}, "[2]": {"tested_on": "Beta vulgaris ssp. vulgaris", "assay": "Test Example 4: effect on crop by application to foliage (diluvial soil, plastic box)", "conditions": "foliage application", "outline": "as §2"}, "[3]": {"tested_on": "directly sowed Oryza sativa", "assay": "Test Example 4: effect on crop by application to foliage (diluvial soil, plastic box)", "conditions": "foliage application", "outline": "as §2"}, "Triticum aestivum": {"tested_on": "Triticum aestivum", "assay": "Test Example 4: effect on crop by application to foliage (diluvial soil, plastic box)", "conditions": "foliage application", "outline": "as §2"}, "Glycine max": {"tested_on": "Glycine max", "assay": "Test Example 4: effect on crop by application to foliage (diluvial soil, plastic box)", "conditions": "foliage application", "outline": "as §2"}, "Digitaria ciliaris": {"tested_on": "Digitaria ciliaris", "assay": "Test Example 4: herbicidal effect by application to foliage (diluvial soil, plastic box)", "conditions": "foliage application", "outline": "as §2"}, "Chenopodium album": {"tested_on": "Chenopodium album", "assay": "Test Example 4: herbicidal effect by application to foliage (diluvial soil, plastic box)", "conditions": "foliage application", "outline": "as §2"}, "Abutilon theophrasti": {"tested_on": "Abutilon theophrasti", "assay": "Test Example 4: herbicidal effect by application to foliage (diluvial soil, plastic box)", "conditions": "foliage application", "outline": "as §2"}, "[4]": {"tested_on": "Echinochloa crus-galli var. crus-galli", "assay": "Test Example 4: herbicidal effect by application to foliage (diluvial soil, plastic box)", "conditions": "foliage application", "outline": "as §2"}, "Amaranthus retroflexus": {"tested_on": "Amaranthus retroflexus", "assay": "Test Example 4: herbicidal effect by application to foliage (diluvial soil, plastic box)", "conditions": "foliage application", "outline": "as §2"}, "Avena fatua": {"tested_on": "Avena fatua", "assay": "Test Example 4: herbicidal effect by application to foliage (diluvial soil, plastic box)", "conditions": "foliage application", "outline": "as §2"}, "Apera spica-venti.": {"tested_on": "Apera spica-venti.", "assay": "Test Example 4: herbicidal effect by application to foliage (diluvial soil, plastic box)", "conditions": "foliage application", "outline": "as §2"}, "Galium spurium": {"tested_on": "Galium spurium", "assay": "Test Example 4: herbicidal effect by application to foliage (diluvial soil, plastic box)", "conditions": "foliage application", "outline": "as §2"}, "Lolium multiflorum Lam.": {"tested_on": "Lolium multiflorum Lam.", "assay": "Test Example 4: herbicidal effect by application to foliage (diluvial soil, plastic box)", "conditions": "foliage application", "outline": "as §2"}, "Stellaria media": {"tested_on": "Stellaria media", "assay": "Test Example 4: herbicidal effect by application to foliage (diluvial soil, plastic box)", "conditions": "foliage application", "outline": "as §2"}, "Veronica persica": {"tested_on": "Veronica persica", "assay": "Test Example 4: herbicidal effect by application to foliage (diluvial soil, plastic box)", "conditions": "foliage application", "outline": "as §2"}, "Alopecurus myosuroides": {"tested_on": "Alopecurus myosuroides", "assay": "Test Example 4: herbicidal effect by application to foliage (diluvial soil, plastic box)", "conditions": "foliage application", "outline": "as §2"}, "[5]": {"conditions": "Application herbicide amount 320 g/ha"}}}
{"smiles": "Cc1nnc(NC(=O)c2ccc(C(F)(F)F)n3c(C4(C)CC4(Cl)Cl)nnc23)o1", "note": "(stereo not drawn) [1-105]", "values": [{"measurement": "A (Echinochloa oryzicola Vasing.) herbicidal ratio grade", "setting": "[1]", "result": "3 (Herbicidal ratio of 40% or more and less than 70%)"}, {"measurement": "C (Monochoria vaginalis) herbicidal ratio grade", "setting": "Monochoria vaginalis", "result": "3 (Herbicidal ratio of 40% or more and less than 70%)"}, {"measurement": "B (Scirpus juncoides) herbicidal ratio grade", "setting": "Scirpus juncoides", "result": "4 (Herbicidal ratio of 70% or more and less than 90%)"}, {"measurement": "g (Brassica campestris L.) effect on crop grade", "setting": "Brassica campestris L.; [5]", "result": "3 (Herbicidal ratio of 40% or more and less than 70%)"}, {"measurement": "c (Zea mays) effect on crop grade", "setting": "Zea mays; [5]", "result": "1 (Herbicidal ratio of 5% or more and less than 20%)"}, {"measurement": "f (Beta vulgaris ssp. vulgaris) effect on crop grade", "setting": "[2]; [5]", "result": "4 (Herbicidal ratio of 70% or more and less than 90%)"}, {"measurement": "b (directly sowed Oryza sativa) effect on crop grade", "setting": "[3]; [5]", "result": "0 (Herbicidal ratio of 5% or less (almost no effect))"}, {"measurement": "e (Triticum aestivum) effect on crop grade", "setting": "Triticum aestivum; [5]", "result": "1 (Herbicidal ratio of 5% or more and less than 20%)"}, {"measurement": "d (Glycine max) effect on crop grade", "setting": "Glycine max; [5]", "result": "2 (Herbicidal ratio of 20% or more and less than 40%)"}, {"measurement": "F (Digitaria ciliaris) herbicidal effect grade", "setting": "Digitaria ciliaris; [5]", "result": "4 (Herbicidal ratio of 70% or more and less than 90%)"}, {"measurement": "O (Chenopodium album) herbicidal effect grade", "setting": "Chenopodium album; [5]", "result": "5 (Herbicidal ratio of 90% or more (almost completely withered))"}, {"measurement": "M (Abutilon theophrasti) herbicidal effect grade", "setting": "Abutilon theophrasti; [5]", "result": "3 (Herbicidal ratio of 40% or more and less than 70%)"}, {"measurement": "H (Echinochloa crus-galli var. crus-galli) herbicidal effect grade", "setting": "[4]; [5]", "result": "4 (Herbicidal ratio of 70% or more and less than 90%)"}, {"measurement": "N (Amaranthus retroflexus) herbicidal effect grade", "setting": "Amaranthus retroflexus; [5]", "result": "3 (Herbicidal ratio of 40% or more and less than 70%)"}, {"measurement": "I (Avena fatua) herbicidal effect grade", "setting": "Avena fatua; [5]", "result": "1 (Herbicidal ratio of 5% or more and less than 20%)"}, {"measurement": "L (Apera spica-venti.) herbicidal effect grade", "setting": "Apera spica-venti.; [5]", "result": "1 (Herbicidal ratio of 5% or more and less than 20%)"}, {"measurement": "Q (Galium spurium) herbicidal effect grade", "setting": "Galium spurium; [5]", "result": "1 (Herbicidal ratio of 5% or more and less than 20%)"}, {"measurement": "K (Lolium multiflorum Lam.) herbicidal effect grade", "setting": "Lolium multiflorum Lam.; [5]", "result": "1 (Herbicidal ratio of 5% or more and less than 20%)"}, {"measurement": "P (Stellaria media) herbicidal effect grade", "setting": "Stellaria media; [5]", "result": "4 (Herbicidal ratio of 70% or more and less than 90%)"}, {"measurement": "R (Veronica persica) herbicidal effect grade", "setting": "Veronica persica; [5]", "result": "3 (Herbicidal ratio of 40% or more and less than 70%)"}, {"measurement": "J (Alopecurus myosuroides) herbicidal effect grade", "setting": "Alopecurus myosuroides; [5]", "result": "1 (Herbicidal ratio of 5% or more and less than 20%)"}]}
{"smiles": "Cn1nnnc1NC(=O)c1ccc(C(F)(F)F)n2c(CSCC(F)(F)F)nnc12", "note": "[2-030]", "values": [{"measurement": "A (Echinochloa oryzicola Vasing.) herbicidal ratio grade", "setting": "[1]", "result": "4 (Herbicidal ratio of 70% or more and less than 90%)"}, {"measurement": "C (Monochoria vaginalis) herbicidal ratio grade", "setting": "Monochoria vaginalis", "result": "4 (Herbicidal ratio of 70% or more and less than 90%)"}, {"measurement": "B (Scirpus juncoides) herbicidal ratio grade", "setting": "Scirpus juncoides", "result": "3 (Herbicidal ratio of 40% or more and less than 70%)"}, {"measurement": "g (Brassica campestris L.) effect on crop grade", "setting": "Brassica campestris L.; 320 g/ha", "result": "5 (Herbicidal ratio of 90% or more (almost completely withered))"}, {"measurement": "b (Zea mays) effect on crop grade", "setting": "Zea mays; 320 g/ha", "result": "5 (Herbicidal ratio of 90% or more (almost completely withered))"}, {"measurement": "f (Beta vulgaris ssp. vulgaris) effect on crop grade", "setting": "[2]; 320 g/ha", "result": "5 (Herbicidal ratio of 90% or more (almost completely withered))"}, {"measurement": "d (directly sowed Oryza sativa) effect on crop grade", "setting": "[3]; 320 g/ha", "result": "4 (Herbicidal ratio of 70% or more and less than 90%)"}, {"measurement": "e (Triticum aestivum) effect on crop grade", "setting": "Triticum aestivum; 320 g/ha", "result": "3 (Herbicidal ratio of 40% or more and less than 70%)"}, {"measurement": "c (Glycine max) effect on crop grade", "setting": "Glycine max; 320 g/ha", "result": "0 (Herbicidal ratio of 5% or less (almost no effect))"}, {"measurement": "F (Digitaria ciliaris) herbicidal effect grade", "setting": "Digitaria ciliaris; 320 g/ha", "result": "5 (Herbicidal ratio of 90% or more (almost completely withered))"}, {"measurement": "O (Chenopodium album) herbicidal effect grade", "setting": "Chenopodium album; 320 g/ha", "result": "5 (Herbicidal ratio of 90% or more (almost completely withered))"}, {"measurement": "M (Abutilon theophrasti) herbicidal effect grade", "setting": "Abutilon theophrasti; 320 g/ha", "result": "5 (Herbicidal ratio of 90% or more (almost completely withered))"}, {"measurement": "H (Echinochloa crus-galli var. crus-galli) herbicidal effect grade", "setting": "[4]; 320 g/ha", "result": "5 (Herbicidal ratio of 90% or more (almost completely withered))"}, {"measurement": "N (Amaranthus retroflexus) herbicidal effect grade", "setting": "Amaranthus retroflexus; 320 g/ha", "result": "5 (Herbicidal ratio of 90% or more (almost completely withered))"}, {"measurement": "I (Avena fatua) herbicidal effect grade", "setting": "Avena fatua; 320 g/ha", "result": "4 (Herbicidal ratio of 70% or more and less than 90%)"}, {"measurement": "L (Apera spica-venti.) herbicidal effect grade", "setting": "Apera spica-venti.; 320 g/ha", "result": "5 (Herbicidal ratio of 90% or more (almost completely withered))"}, {"measurement": "Q (Galium spurium) herbicidal effect grade", "setting": "Galium spurium; 320 g/ha", "result": "3 (Herbicidal ratio of 40% or more and less than 70%)"}, {"measurement": "K (Lolium multiflorum Lam.) herbicidal effect grade", "setting": "Lolium multiflorum Lam.; 320 g/ha", "result": "3 (Herbicidal ratio of 40% or more and less than 70%)"}, {"measurement": "P (Stellaria media) herbicidal effect grade", "setting": "Stellaria media; 320 g/ha", "result": "5 (Herbicidal ratio of 90% or more (almost completely withered))"}, {"measurement": "R (Veronica persica) herbicidal effect grade", "setting": "Veronica persica; 320 g/ha", "result": "5 (Herbicidal ratio of 90% or more (almost completely withered))"}, {"measurement": "J (Alopecurus myosuroides) herbicidal effect grade", "setting": "Alopecurus myosuroides; 320 g/ha", "result": "3 (Herbicidal ratio of 40% or more and less than 70%)"}]}
